The target of this experiment is T1, cathepsin L protease (Homo sapiens, UniProt P07711).
T1 construct: purchased BPS Bioscience
The experiment is described as follows: Protease inhibition, cell-free fluorogenic kit (BPS Bioscience). Type of experiment: biochemical.

T1 sequence (P07711 114-333): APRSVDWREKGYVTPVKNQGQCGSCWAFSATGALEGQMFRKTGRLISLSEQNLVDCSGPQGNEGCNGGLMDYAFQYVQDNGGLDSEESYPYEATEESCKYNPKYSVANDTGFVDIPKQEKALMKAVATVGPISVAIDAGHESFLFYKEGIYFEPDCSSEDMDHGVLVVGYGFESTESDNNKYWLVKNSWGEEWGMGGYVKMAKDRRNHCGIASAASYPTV

As for `CC(C)C[C@H](NC(=O)[C@H]1O[C@@H]1C(=O)O)C(=O)NCCCCN=C(N)N` [Composition E-64, E-64], the Percentage inhibition (0.0001 μM) was −15.5% and the Percentage inhibition (0.001 μM) is on record as −1.1 ^ %.

The record behind these values is patent US20240050512A1, “REDUCTION OF VIRAL INFECTIONS” (priority 2020, published 2024).
